In one data set the test system is HCV replicon gt1a_H77. The data set is described as follows: Cell-based HCV replicon assay (TaqMan), genotype 1a (H77). The settings on record: Hepatitis C virus, 72 h, replicon 1a (H77); replicon RNA by TaqMan, day 3. The method in brief:
(§1)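 Replicon cells seeded at 5000 cells/well with compound (10 serial 2-fold dilutions from 250 μM to 1 μM top dose; 0.5% DMSO, 5% FBS) and lysed on day 3. Replicon RNA quantified by multiplex TaqMan RT-PCR (NS5B amplicon, GAPDH control); ΔCT versus concentration fitted to sigmoid dose-response. Chimeras carry patient-isolate NS5A.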
Background: Replicon systems follow genome replication, usually without infectious particles.

Data set [1] has as its system HCV chimeric replicon with NS5A of genotype 2b (AB03090). The data set is described as follows: Cell-based HCV replicon assay (TaqMan), chimeric replicon genotype 2b (AB03090). To be noted: Hepatitis C virus, 72 h, read-out: HCV replicon EC50 2b (AB03090), chimeric replicon 2b (AB03090); replicon RNA by TaqMan, day 3. The protocol:
Measurement of inhibition by compounds of the present invention was performed using the HCV replicon system. Several different replicons encoding different HCV genotypes or mutations were used. In addition, potency measurements were made using different formats of the replicon assay, including different ways of measurements and different plating formats. See Jan M. Vrolijk et al., A replicons-based bioassay for the measurement of interferons in patients with chronic hepatitis C, 110 J. VIROLOGICAL METHODS 201 (2003); Steven S. Carroll et al., Inhibition of Hepatitis C Virus RNA Replication by 2′-Modified Nucleoside Analogs, 278(14) J. BIOLOGICAL […] 11979 (2003). However, the underlying principles are common to all of these determinations, and are outlined below.
Compounds of the present invention were assayed for cell-based anti-HCV activity using the following protocol. Replicon cells were seeded at 5000 cells/well in 96-well collagen I-coated Nunc plates in the presence of the test compound. Various concentrations of test compound, typically in 10 serial 2-fold dilutions, were added to the assay mixture, with the starting concentration ranging from 250 μM to 1 μM. The final concentration of DMSO was 0.5%, fetal bovine serum was 5%, in the assay media. Cells were harvested on day 3 by the addition of 1× cell lysis buffer (Ambion cat #8721). The replicon RNA level was measured using real time PCR (TaqMan® assay). The amplicon was located in 5B. The PCR primers were: 5B.2F, […] (SEQ. ID NO. 1); 5B.2R, […] (SEQ. ID NO. 2); the probe sequence was FAM-labeled […] (SEQ. ID NO. 3). GAPDH RNA was used as endogenous control and was amplified in the same reaction as NS5B (multiplex PCR) using primers and VIC-labeled probe recommended by the manufacturer (PE Applied Biosystem). The real-time RT-PCR reactions were run on ABI PRISM 7900HT Sequence Detection System using the following program: 48° C. for 30 minutes, 95° C. for 10 minutes, 40 cycles of 95° C. for 15 sec, 60° C. for 1 minute. The ΔCT values (CT5B-CTGAPDH) were plotted against the concentration of test compound and fitted to the sigmoid dose-response model using XLfit4 (MDL). […] Alternatively, to quantitate the absolute amount of replicon RNA, a standard curve was established by including serially diluted T7 transcripts of replicon RNA in the Taqman assay. All TaqMan® reagents were from PE Applied Biosystems. Such an assay procedure was described in detail in e.g. Malcolm et al., Antimicrobial Agents and Chemotherapy 50: 1013-1020 (2006).
Wherein gt1a_H77 was prepared as described in Yi et al., J Virol. 2004, 78(15):7904-15; gt1b_con1 was prepared as described in Lohmann et al., Science 1999, 285(5424):110-3; and gt2a_JFH was prepared as described in Kato et al., Gastroenterology. 2003, 125(6):1808-17. Chimeric replicons contain NS5A from patient isolates of genotypes 1a, 1b, 2b, 3a and 4a as indicated.

The nature of data set [2]: Pharmacokinetic analysis in monkeys. The class given is in vivo, male cynomolgus monkeys. To be noted: Monkey, dihydrochloride salt, 2 mpk/PO, 1 mpk/IV. The protocol: Various pharmacokinetic parameters for compound 56 were measured in rats, dogs and monkeys as described below.
Following an overnight fast, male cynomolgus monkeys were dosed with the dihydrochloride salt of compound 56 orally at 2 mg/kg as a suspension in 0.4% hydroxylpropyl methylcellulose (HPMC) or intravenously at 1 mg/kg as a solution in 20% hydroxypropyl-β-cyclodextrin (20% HPβCD). For oral dosing, the animals dosed by oro-gastric intubation. Monkeys were fed approximately 1 hour before dosing and 4 hours after dosing. Blood samples were collected from the saphenous and/or cephalic vein at 0.25, 0.5, 1, 2, 4, 6, 8, 12, 24, 48, and 72 (PO), and 0.167, 0.25, 0.5, 1, 2, 4, 6, 8, 12, 24, 48, and 72 hrs (IV) post-dosing and centrifuged to generate plasma. The plasma samples were stored at […] until analysis.
Collected plasma samples were analyzed for the presence of compound 56 using LC-MS/MS as described below.
The HPLC/API-MS/MS system for the example data consisted of a HPLC pumping system and a auto sampler with the sample tray refrigeration option connected directly to a triple quadrupole mass spectrometer with an API source. Typical HPLC methods for the example data was based on a fast gradient of two solvents: solvent A consisted of 0.1% formic acid in water, and solvent B consisted of 0.1% formic acid in acetonitrile. A fast linear gradient (start at 90% A for 0.2 min, ramp to 95% B from 0.2 to 0.5 min, hold at 95% B […], then ramp back to 90% A from 1.0 to 1.1 min, then hold at, […] from 1.1 to 1.2 min) was used. The flow rate for the HPLC system was set to 1 mL/min throughout the HPLC gradient; the HPLC column was a Halo C18 column (2.7 micron particle size, 50×2.1 mm). The example compounds were analyzed by positive ion atmospheric pressure chemical ionization tandem mass spectrometry (APCI-MS/MS). As a general procedure, selected reaction monitoring (SRM) methods were developed for each compound prior to analysis of the plasma samples. Normally, the individual SRM transitions were based on a fragmentation from the protonated molecule ([MH].) to a characteristic product ion.
Using the methods described above, the following pharmacokinetic parameters were calculated in rats, dogs and monkeys and the results are summarized in the table below.

The test system of data set [3] is HCV replicon 1a (L31V) mutant. As to the kind of experiment: Cell-based HCV replicon assay (TaqMan), genotype 1a mutant L31V. The settings on record: Hepatitis C virus, 72 h, read-out: HCV replicon EC50 1a (L31V). The method in brief: as §1

pEC50: −log10 of the molar value.

By pEC50 is commonly meant −log10 of the EC50, conventionally taken in molar units. The compound `COC(=O)N[C@H](C(=O)N1CC(F)(F)C[C@H]1c1ncc(-c2ccc(-c3ccc4c(ccc5nc([C@@H]6C[Si](C)(C)CN6C(=O)[C@@H](NC(=O)OC)C(C)C)[nH]c54)c3)cc2)[nH]1)C(C)C` [Compound 56] showed a pEC50 with HCV replicon gt1a_H77 of 10.80. For the same compound, in data set [1], the pEC50 was 7.32. In data set [2], the “Effective Half-Life” value turned out to be 17 h, the “Systemic Clearance” value is 1.2 mL/min/kg and the “Volume of Distribution” value turned out to be 1.7 L/kg. In addition, the “Oral Bioavailability” value in data set [2] (dose-normalized AUC between PO and IV) is listed as 11.7%. In data set [3], the pEC50 is 7.80.

Source of the values: US8609635B2, “Fused tricyclic silyl compounds and methods of use thereof for the treatment of viral diseases” (priority 2010, dated 2013).
